Test results: PubChem BioAssay AID1963870 (Molecular Pharmacology Branch, DTP, NCI, 2024)

Test system: 292921-168-R-J2-PDC KRAS tumor spheroid viability
Test: Anticancer human tumor 292921-168-R-J2-PDC patient-derived pancreatic carcinoma cell line growth inhibition [KRAS2]
Conditions: spheroids with HUVEC and MSC; for IC50: curve of first compound; for viability, T/C: stronger effect = lower value
Summary of the method: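 KRAS-mutant tumor cells were grown as spheroids with HUVEC endothelial cells and human MSCs as stroma. Targeted agents were tested alone and with KRAS pathway inhibitors. Doses started at or near clinical Cmax, or 10 microM, descending half-log.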

[1] = second compound 0.1 µM, first compound 0.0316 µM
[2] = second compound 0.1 µM, first compound 0.1 µM
[3] = second compound 0.1 µM, first compound 0.316 µM
[4] = second compound 0.1 µM, first compound 1 µM
[5] = second compound 0.1 µM, first compound 3.16 µM
[6] = second compound 0.1 µM, first compound 10 µM
[7] = second compound 0.316 µM, first compound 0.0316 µM
[8] = second compound 0.316 µM, first compound 0.1 µM
[9] = second compound 0.316 µM, first compound 0.316 µM
[10] = second compound 0.316 µM, first compound 1 µM
[11] = second compound 0.316 µM, first compound 3.16 µM
[12] = second compound 0.316 µM, first compound 10 µM
[13] = second compound 1 µM, first compound 0.0316 µM
[14] = second compound 1 µM, first compound 0.1 µM
[15] = second compound 1 µM, first compound 0.316 µM
[16] = second compound 1 µM, first compound 1 µM
[17] = second compound 1 µM, first compound 3.16 µM
[18] = second compound 1 µM, first compound 10 µM
[19] = second compound 3.16 µM, first compound 0.0316 µM
[20] = second compound 3.16 µM, first compound 0.1 µM
[21] = second compound 3.16 µM, first compound 0.316 µM
[22] = second compound 3.16 µM, first compound 1 µM
[23] = second compound 3.16 µM, first compound 3.16 µM
[24] = second compound 3.16 µM, first compound 10 µM
[25] = second compound 10 µM, first compound 0.0316 µM
[26] = second compound 10 µM, first compound 0.1 µM
[27] = second compound 10 µM, first compound 0.316 µM
[28] = second compound 10 µM, first compound 1 µM
[29] = second compound 10 µM, first compound 3.16 µM
[30] = second compound 10 µM, first compound 10 µM
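Note: drug exposure lasted seven days after spheroids formed for three days.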
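Throughout, for viability, T/C: percent of DMSO vehicle control viability which is 100%.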

Row | Structure (SMILES) | IC50 (second compound 0.1 µM) | IC50 (second compound 0.316 µM) | IC50 (second compound 1 µM) | IC50 (second compound 3.16 µM) | IC50 (second compound 10 µM) | viability, T/C [1] | viability, T/C [2] | viability, T/C [3] | viability, T/C [4] | viability, T/C [5] | viability, T/C [6] | viability, T/C [7] | viability, T/C [8] | viability, T/C [9] | viability, T/C [10] | viability, T/C [11] | viability, T/C [12] | viability, T/C [13] | viability, T/C [14] | viability, T/C [15] | other results
1 | O=C(c1cc(Cc2n[nH]c(=O)c3ccccc23)ccc1F)N1CCN(C(=O)C2CC2)CC1 + C=CC(=O)N1CCN(c2nc(=O)n(-c3c(C)ccnc3C(C)C)c3nc(-c4c(O)cccc4F)c(F)cc23)C(C)C1 | 7630 nM | 8380 nM | 6670 nM | 1020 nM | < 31.6 nM | 97.8% | 87% | 88% | 84.1% | 76.8% | 41.9% | 90.8% | 82.1% | 79.4% | 85.9% | 75.7% | 45.1% | 77% | 72.3% | 76.2% | viability, T/C [16]: 84.2%; viability, T/C [17]: 62.1%; viability, T/C [18]: 41%; viability, T/C [19]: 64%; viability, T/C [20]: 59.5%; viability, T/C [21]: 56.7%; viability, T/C [22]: 47.5%; viability, T/C [23]: 46.7%; viability, T/C [24]: 38.2%; viability, T/C [25]: 27.3%; viability, T/C [26]: 25.9%; viability, T/C [27]: 28.2%; viability, T/C [28]: 28.9%; viability, T/C [29]: 32%; viability, T/C [30]: 29.1%
2 | COC(=O)c1ccc2c(C(=Nc3ccc(N(C)C(=O)CN4CCN(C)CC4)cc3)c3ccccc3)c(O)[nH]c2c1 + COc1cc2nc(C)nc(NC(C)c3cc(N)cc(C(F)(F)F)c3)c2cc1OC1CCOC1 | 856 nM | 620 nM | 382 nM | 221 nM | 31.9 nM | 115% | 103% | 83% | 49.4% | 4.07% | 0.28% | 95.9% | 96.6% | 62.1% | 37.3% | 19.2% | 0.44% | 103% | 97.5% | 47% | viability, T/C [16]: 29.5%; viability, T/C [17]: 4.33%; viability, T/C [18]: 0.36%; viability, T/C [19]: 83.9%; viability, T/C [20]: 61.1%; viability, T/C [21]: 46.5%; viability, T/C [22]: 25.1%; viability, T/C [23]: 6.39%; viability, T/C [24]: 0.44%; viability, T/C [25]: 49%; viability, T/C [26]: 44.2%; viability, T/C [27]: 22.8%; viability, T/C [28]: 12.8%; viability, T/C [29]: 1.24%; viability, T/C [30]: 0.24%
